Measured values as given in patent publication US20220213210A1, “COMBINATION THERAPY OF MULTIPLE SCLEROSIS COMPRISING A CD20 LIGAND” (MABION SA, priority 2017, published 2022).
Where a name gives a salt, the structure may show the parent alone.

System: MOG-induced experimental allergic encephalomyelitis (EAE) murine model
Experiment: MOG-induced experimental allergic encephalomyelitis (EAE) murine model, clinical score 0-15
Assay type: in vivo, Mouse/C57BL/6J
Settings: dimethyl fumarate in therapeutic dose, 49 mg/kg PO bi-daily, Days 0-35 (Group 11)
From the text: FIG. 1: Combination of MabionCD20DP and teriflunomide. MabionCD20DP and teriflunomide have been administered to an experimental allergic encephalomyelitis (EAE) mouse model. The MOG (myelin oligodendrocyte glycoprotein)-induced EAE murine model consists of a sensitization period, induced by the single SC injection of MOG emulsified in CFA (complete Freund's adjuvant) on Day 0, followed by IP supplemental immunostimulation with PT carried out once at the time of EAE induction and once again 48 hours later.
FIG. 2: Combination of MabionCD20DP and dimethyl fumarate. MabionCD20DP and dimethyl fumarate have been administered to an experimental allergic encephalomyelitis (EAE) mouse model. […]
Throughout the 36-day study, general clinical examinations were performed and recorded if any unexpected abnormalities are observed.
Body weight loss can be the first sign of disease initiation, while a sudden marked weight gain tends to accompany remission of EAE symptoms. Therefore, determination of individual body weights of animals was made shortly before EAE induction on Study Day 0 and was monitored on a daily basis throughout the 35-day observation period. […]

COC(=O)/C=C/C(=O)OC [dimethyl fumarate]
disease parameters (EAE), FIG. 2: reduction of the disease parameters
